Measurements: patent US20230212549A1, “COMPOUNDS COMPRISING A […] LIGAND AND USE THEREOF” (priority 2021, published 2023)
Numbered stars: 1 amine (or outer) side, 2 acyl side, 3 side chain; on linkers, the order of the positions; unused ones are H or OH. Bridge positions count the residues as written; N and C are the ends. Square brackets hold non-standard residues; d marks the D form. Peptide text beside a SMILES is read from it. * marks the point of attachment. ξ: configuration not given here. X11 = O=C(O)CN1CCN(CC(=O)O)CCN(C(CCC(=O)NCCSCc2cc(C[*:1])cc(C[*:2])c2)C(=O)O)CC1; X10 = O=C(O)CN1CCN(CC(=O)O)CCN(C(CCC(=O)NCCCOCCOCCOCCCN*)C(=O)O)CC1; mXylylene = c1cc(C[*:1])cc(C[*:2])c1; PEG6 = NCCOCCOCCOCCOCCOCCOCCC(=O)O; X29 = O=C(CN1CCN([*:1])CC1)[*:2]; Suc = O=C(CCC(=O)[*:2])[*:1]; Nle = CCCC[C@H](N)C(=O)O; X2 = NCCNCC(CNCCN)C(=O)*; Hexanoyl = CCCCCC(=O)*; ξC = NC(CS)C(=O)O; βAla = NCCC(=O)O

Assays:
[1] = biological target: T1, FAP-expressing human WI-38 fibroblasts (Homo sapiens, UniProt Q12884); assay: Competitive FACS binding assay
T1 construct: FAP-expressing human WI-38 fibroblasts (ECACC) were cultured in EMEM; host or cells: WI-38 human fibroblasts
Procedure: Cells were analyzed in an Attune NxT flow cytometer. […] […].
Cells were analyzed in an Attune NxT flow cytometer. […]

[2] = biological target: Human recombinant FAP (Homo sapiens, UniProt Q12884); assay: FRET-based FAP protease activity assay; format: biochemical; parameters: purchased R&D systems 3715-SE
[3] = pIC50 Category (Activity), FRET-peptide substrate, 37° C.
[4] = pIC50 Category (activity), Recombinant human FAP

Human recombinant FAP, sequence (Q12884 whole entry): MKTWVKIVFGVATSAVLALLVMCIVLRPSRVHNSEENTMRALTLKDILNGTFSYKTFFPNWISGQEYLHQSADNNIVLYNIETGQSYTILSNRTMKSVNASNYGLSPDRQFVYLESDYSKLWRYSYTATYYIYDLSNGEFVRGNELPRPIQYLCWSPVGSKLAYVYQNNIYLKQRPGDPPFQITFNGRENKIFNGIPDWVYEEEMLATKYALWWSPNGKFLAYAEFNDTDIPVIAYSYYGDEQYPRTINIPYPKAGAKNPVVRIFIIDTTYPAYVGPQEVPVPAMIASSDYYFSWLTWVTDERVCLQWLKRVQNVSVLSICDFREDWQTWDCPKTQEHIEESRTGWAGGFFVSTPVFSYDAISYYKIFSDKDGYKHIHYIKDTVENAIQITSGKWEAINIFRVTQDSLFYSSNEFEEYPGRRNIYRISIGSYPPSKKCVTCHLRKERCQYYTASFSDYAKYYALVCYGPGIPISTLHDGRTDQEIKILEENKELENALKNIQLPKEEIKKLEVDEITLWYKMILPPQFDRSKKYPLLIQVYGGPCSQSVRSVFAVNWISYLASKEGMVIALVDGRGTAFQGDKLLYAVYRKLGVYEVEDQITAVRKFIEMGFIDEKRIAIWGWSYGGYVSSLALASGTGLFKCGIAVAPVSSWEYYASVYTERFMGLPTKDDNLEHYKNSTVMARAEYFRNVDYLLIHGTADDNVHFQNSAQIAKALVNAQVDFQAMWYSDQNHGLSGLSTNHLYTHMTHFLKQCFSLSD
T1 sequence (Q12884 whole entry): as above

Row | SMILES | IC50 [1] [nM] | pIC50 Category (FACS) ([1]; FAP-expressing human WI-38 fibroblasts) | IC50 [2, 3] [nM] | IC50 [2, 4] [nM]
1 | CCCCCC(=O)N[C@H]1CSCc2cc(CSCCNC(=O)CCC(=O)NCCCOCCOCCOCCCNC(=O)CCCCC3(N(C)CC(=O)O)CN(CC(=O)O)CCN(CC(=O)O)C3)cc(c2)CSC[C@@H](C(=O)O)NC(=O)[C@H](Cc2ccccc2)NC(=O)[C@H](CCC(N)=O)NC(=O)[C@H]([C@@H](C)O)NC(=O)[C@@H]2CCCN2C(=O)[C@@H]2CCCN2C1=O [3BP-4384, Hex-[Cys(tMeBn(DATA-Ttds-AET))-Pro-Pro-Thr-Gln-Phe-Cys]-OH] | 10 to 79.4 | B (category B for pIC50 values between 7.1 and 8.0) | 10 to 79.4 | 10 to 79.4
2 | CCCC[C@H](NC(=O)CCC(=O)NCCCOCCOCCOCCCNC(=O)CN1CCN(CC(=O)O)CCN(CC(=O)O)CCN(CC(=O)O)CC1)C(=O)N[C@H]1CSCc2cc(CSCCNC(=O)CN3CCN(CC(=O)O)CCN(CC(=O)O)CCN(CC(=O)O)CC3)cc(c2)CSC[C@@H](C(=O)O)NC(=O)[C@H](Cc2ccccc2)NC(=O)[C@H](CCC(N)=O)NC(=O)[C@H]([C@@H](C)O)NC(=O)[C@@H]2CCCN2C(=O)[C@@H]2CCCN2C1=O [3BP-4386, DOTA-Ttds-Nle-[Cys(tMeBn(DOTA-AET))-Pro-Pro-Thr-Gln-Phe-Cys]-OH] | 10 to 79.4 |  | 10 to 79.4 | 
3 | CCCC[C@H](NC(=O)CCC(=O)NCCCOCCOCCOCCCNC(=O)CN1CCN(CC(=O)O)CCN(CC(=O)O)CCN(CC(=O)O)CC1)C(=O)N[C@H]1CSCc2cc(CSCCNC(=O)CN3CCN(CC(=O)O)CCN(CC(=O)O)CCN(CC(=O)O)CC3)cc(c2)CSC[C@@H](C(=O)N[C@@H](CC(=O)O)C(=O)NCCCOCCOCCOCCCNC(=O)CCC(=O)N[C@@H](CCCCNC(=O)CN2CCN(CC(=O)O)CCN(CC(=O)O)CCN(CC(=O)O)CC2)C(N)=O)NC(=O)[C@H](Cc2ccccc2)NC(=O)[C@H](CCC(N)=O)NC(=O)[C@H]([C@@H](C)O)NC(=O)[C@@H]2CCCN2C(=O)[C@@H]2CCCN2C1=O [3BP-4392, DOTA-Ttds-Nle-[Cys(tMeBn(DOTA-AET))-Pro-Pro-Thr-Gln-Phe-Cys]-Asp-Ttds-Lys(DOTA)-NH2] | 10 to 79.4 |  | 10 to 79.4 | 
4 | CCCC[C@H](NC(=O)CCC(=O)NCCCOCCOCCOCCCNC(=O)CN1CCN(CC(=O)O)CCN(CC(=O)O)CCN(CC(=O)O)CC1)C(=O)N[C@H]1CSCc2cccc(c2)CSC[C@@H](C(=O)N[C@@H](CC(=O)O)C(=O)NCCCOCCOCCOCCCNC(=O)CCC(=O)N[C@@H](CCCCNC(=O)CN2CCN(CC(=O)O)CCN(CC(=O)O)CCN(CC(=O)O)CC2)C(N)=O)NC(=O)[C@H](Cc2ccccc2)NC(=O)[C@H](CCC(N)=O)NC(=O)[C@H]([C@@H](C)O)NC(=O)[C@@H]2CCCN2C(=O)[C@@H]2CCCN2C1=O [3BP-4393, DOTA-Ttds-Nle-[Cys(3MeBn)-Pro-Pro-Thr-Gln-Phe-Cys]-Asp-Ttds-Lys(DOTA)-NH2] | < 10 |  | < 10 | 
5 | CCCCNC(=O)N[C@H]1CSCc2cccc(c2)CSC[C@@H](C(=O)N[C@@H](CCCCNC(=O)C(CNCCN)CNCCN)CC(=O)O)NC(=O)[C@H](Cc2ccccc2)NC(=O)[C@H](CCC(N)=O)NC(=O)[C@H]([C@@H](C)O)NC(=O)[C@@H]2CCCN2C(=O)[C@@H]2CCCN2C1=O [3BP-4589, nBu-CAyl-[Cys(3MeBn)-Pro-Pro-Thr-Gln-Phe-Cys]-Bhk(N4Ac)—OH] | < 10 |  | < 10 | 
6 | CCCCCC(=O)N[C@H]1CSCc2cc(CSCCNC(=O)CCC(C(=O)O)N3CCN(CC(=O)O)CCN(CC(=O)O)CC3)cc(c2)CSCC(C(=O)O)NC(=O)[C@H](Cc2ccccc2)NC(=O)[C@H](CCC(=O)O)NC(=O)[C@H]([C@@H](C)O)NC(=O)[C@@H]2CCCN2C(=O)[C@@H]2CCCN2C1=O (stereo partly drawn) [3BP-4695, Hex-[Cys(tMeBn(NODAGA-AET))-Pro-Pro-Thr-Glu-Phe-Cys]-OH] (Hexanoyl-CPPTEF[ξC]-OH; linker 1-7 via X11) | 10 to 79.4 |  |  | 10 to 79.4
7 | CCCCCC(=O)N[C@H]1CSCc2cc(CSCCNC(=O)COCCOCCNC(=O)CCC(C(=O)O)N3CCN(CC(=O)O)CCN(CC(=O)O)CC3)cc(c2)CSCC(C(N)=O)NC(=O)[C@H](Cc2ccccc2)NC(=O)[C@H](CCC(N)=O)NC(=O)[C@H]([C@@H](C)O)NC(=O)[C@@H]2CCCN2C(=O)[C@@H]2CCCN2C1=O (stereo partly drawn) [3BP-4708, Hex-[Cys(tMeBn(NODAGA-O2Oc-AET))-Pro-Pro-Thr-Gln-Phe-Cys]-NH2] | < 10 |  |  | < 10
8 | CCCCNC(=O)N[C@H]1CSCc2cc(CSCCNC(=O)CCC(C(=O)O)N3CCN(CC(=O)O)CCN(CC(=O)O)CC3)cc(c2)CSCC(C(=O)O)NC(=O)[C@H](Cc2ccccc2)NC(=O)[C@H](CCC(N)=O)NC(=O)[C@H]([C@@H](C)O)NC(=O)[C@@H]2CCCN2C(=O)[C@@H]2CCCN2C1=O (stereo partly drawn) [3BP-4723, nBu-CAyl-[Cys(tMeBn(NODAGA-AET))-Pro-Pro-Thr-Gln-Phe-Cys]-OH] | < 10 |  |  | < 10
9 | CCCCCC(=O)N[C@H]1CSCc2cc(CSCCNC(=O)CCP(=O)(O)CN3CCN(CP(=O)(O)CO)CCN(CP(=O)(O)CO)CC3)cc(c2)CSCC(C(N)=O)NC(=O)[C@H](Cc2ccccc2)NC(=O)[C@H](CCC(N)=O)NC(=O)[C@H]([C@@H](C)O)NC(=O)[C@@H]2CCCN2C(=O)[C@@H]2CCCN2C1=O (stereo partly drawn) [3BP-4729, Hex-[Cys(tMeBn(NOPO-AET))-Pro-Pro-Thr-Gln-Phe-Cys]-NH2] | < 10 |  |  | < 10
10 | CCCC[C@H](NC(=O)CCC(=O)NCCCOCCOCCOCCCNC(=O)CCC(C(=O)O)N1CCN(CC(=O)O)CCN(CC(=O)O)CC1)C(=O)N[C@H]1CSCc2cccc(c2)CSCC(C(N)=O)NC(=O)[C@H](Cc2ccccc2)NC(=O)[C@H](CCC(=O)O)NC(=O)[C@H]([C@@H](C)O)NC(=O)[C@@H]2CCCN2C(=O)[C@@H]2CCCN2C1=O (stereo partly drawn) [3BP-4743, NODAGA-Ttds-Nle-[Cys(3MeBn)-Pro-Pro-Thr-Glu-Phe-Cys]-NH2] ({X10-Suc}-[Nle]CPPTEF[ξC]-NH2; linker 2-8 via mXylylene) | 10 to 79.4 |  |  | 10 to 79.4
11 | CCCC[C@H](NC(=O)CCNC(=O)CCOCCOCCOCCOCCOCCOCCNC(=O)C(CNCCN)CNCCN)C(=O)N[C@H]1CSCc2cccc(c2)CSC[C@@H](C(=O)O)NC(=O)[C@H](Cc2ccccc2)NC(=O)[C@H](CCC(=O)O)NC(=O)[C@H]([C@@H](C)O)NC(=O)[C@@H]2CCCN2C(=O)[C@@H]2CCCN2C1=O [3BP-4779, N4Ac-PEG6-Bal-Nle-[C(3MeBn)-PPTEFC]-OH] ({X2-PEG6-βAla}-[Nle]CPPTEFC-OH; linker 2-8 via mXylylene) | 100 to 794 |  |  | > 1000
12 | CCCC[C@H](NC(=O)CCOCCOCCOCCOCCOCCOCCNC(=O)CN1CCN(C(=O)C(CNCCN)CNCCN)CC1)C(=O)N[C@H]1CSCc2cccc(c2)CSC[C@@H](C(=O)O)NC(=O)[C@H](Cc2ccccc2)NC(=O)[C@H](CCC(=O)O)NC(=O)[C@H]([C@@H](C)O)NC(=O)[C@@H]2CCCN2C(=O)[C@@H]2CCCN2C1=O [3BP-4781, N4Ac-PPAc-PEG6-Nle-[Cys(3MeBn)-Pro-Pro-Thr-Glu-Phe-Cys]-OH] (X2-[X29][PEG6][Nle]CPPTEFC-OH; linker 4-10 via mXylylene) | 10 to 79.4 |  |  | 10 to 79.4
13 | CCCC[C@H](NC(=O)CCNC(=O)CN1CCN(C(=O)C(CNCCN)CNCCN)CC1)C(=O)N[C@H]1CSCc2cccc(c2)CSC[C@@H](C(=O)O)NC(=O)[C@H](Cc2ccccc2)NC(=O)[C@H](CCC(=O)O)NC(=O)[C@H]([C@@H](C)O)NC(=O)[C@@H]2CCCN2C(=O)[C@@H]2CCCN2C1=O [3BP-4783, N4Ac-PPAc-Bal--Nle-[C(3MeBn)-PPTEFC]-OH] (X2-[X29][βAla][Nle]CPPTEFC-OH; linker 4-10 via mXylylene) | > 1000 |  |  | > 1000
